According to patent publication US11957687B2 (REGENERON PHARMACEUTICALS, INC., priority 2019, dated 2024):
pIC50: −log10 of the molar value.

Legend:
HSD17B13 = HSD17B13 (Homo sapiens (Human), UniProt Q7Z5P4); experiment: HSD17B13 enzymatic inhibition assay (150 nM or 50 nM HSD17B13); format: biochemical; conditions: 50 nM HSD17B13; read-out: Inhibition of 50 nM of HSD17B13 IC50
HSD17B1 = HSD17B1 (Homo sapiens (Human), UniProt P14061); experiment: HSD17B1 enzymatic blocking assay; format: biochemical; conditions: 25 μM Estradiol, 500 μM NAD; read-out: Inhibition of HSD17B1 IC50
Summary of the method: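 Activity followed as NADH formed on estradiol oxidation, read by NADH-Glo luminescence after 1 h detection in the dark at room temperature. Compounds preincubated with enzyme 30 min at room temperature; 0.5% DMSO and no-substrate controls. IC50 fitted from luminescence.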

HSD17B2 = HSD17B2 (Homo sapiens (Human), UniProt P37059); experiment: HSD17B2 enzymatic blocking assay; format: biochemical; conditions: 1.8 μM Estradiol, 650 μM NAD; read-out: Inhibition of HSD17B2 IC50
Summary of the method: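 Mammalian-expressed enzyme at 2 ng/μL in 50 mM Tris-HCl pH 7.5 with detergents/BSA, preincubated 15 min at 20° C. with compound (10-point titration). Reaction with 1.8 μM estradiol and 650 μM NAD ran 45 min at 20° C.; NADH measured by NADH-Glo luminescence and IC50 derived.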

HSD17B4 = HSD17B4 (Homo sapiens (Human), UniProt P51659); experiment: HSD17B4 enzymatic blocking assay; format: biochemical; conditions: 23.46 μM Estradiol, 1500 μM NAD; read-out: Inhibition of HSD17B4 IC50
Procedure: To screen compounds of the disclosure for their ability to block HSD17B4 function, an enzymatic blocking assay was performed. For the assay, HSD17B4 activity was measured by detecting NADH formation from oxidation of Estradiol using a NADH Glo luminescence assay (Promega, #Cat. No. G9062). Compounds of the disclosure were evaluated in a dose titration assay where the compounds were titrated at 10-point dose curve using an Echo-555 liquid handling dispenser. HSD17B4 (SEQ ID NO: 4, expressed in mammalian cells) was added at a final concentration of 2.5 ng/μL in a buffer containing 50 mM Tris-HCl, pH 7.5, Pluronic F-127 0.05%, Tween20 0.01%, BSA 0.01%, into a low volume white 384-well assay plate. Compounds were incubated with the enzyme for 15 min at 20° C. The assay reaction was then initiated by addition of 23.46 μM Estradiol substrate (Sigma, catalog #E2758-250MG, CAS: 50-28-2) and 1500 μM NAD co-factor, and the reaction mixture was incubated for 45 min at 20° C. DMSO at a concentration of 0.5% was used as a negative control and a ‘no substrate’ control was used a positive control in the assay. Detection reagent was then added as per manufacturer's instructions, and the plate was subsequently incubated in the dark for 1 hour at room temperature, NADH generated was detected in the luminescence mode on the Envision Perkin Elmer plate reader. The IC50 values were determined using Dotmatics analysis software.

HSD17B10 = HSD17B10 (Homo sapiens (Human), UniProt Q99714); experiment: HSD17B10 enzymatic blocking assay; format: biochemical; conditions: 25 μM Estradiol, 500 μM NAD; read-out: Inhibition of HSD17B10 IC50
Procedure: To screen compounds of the disclosure for their ability to block HSD17B10 function, an enzymatic blocking assay was performed. For the assay, HSD17B10 activity was measured by detecting NADH formation from oxidation of Estradiol using a NADH Glo luminescence assay (Promega, #Cat. No. G9062). Compounds of the disclosure were evaluated in a dose titration assay where the compounds were titrated at 10-point dose curve using an Echo-555 liquid handling dispenser. HSD17B10 (Seq. ID NO: 5, expressed in mammalian cells) was added at a final concentration of 31.25 ng/well in a buffer containing 0.2M Tris-HCl, pH 7.5, into a low volume white 384-well assay plate. Compounds were incubated with the enzyme for 30 minutes at room temperature. The assay reaction was then initiated by addition of 25 μM Estradiol substrate (Sigma, catalog #E2758-250MG, CAS: 50-28-2) and 500 μM NAD co-factor, and the reaction mixture was incubated for 3 hours at room temperature. DMSO at a concentration of 0.5% was used as a negative control and a ‘no substrate’ control was used a positive control in the assay. Detection reagent was then added as per manufacturer's instructions, and the plate was subsequently incubated in the dark for 1 hour at room temperature, NADH generated was detected in the luminescence mode on the Envision Perkin Elmer plate reader. The IC50 values were determined using Dotmatics analysis software.

[1] = Microsome stability assay, human liver microsomes; format: in vitro ADME; conditions: 1 μM compound, 0.5 mg/mL microsomal protein; for microsomal CLint at 1 h, 1 µM / half-life at 1 h, 1 µM / microsomal CLint at 1 μM / half-life at 1 μM: human, human liver microsomes, pooled, NADPH, 37° C.; for microsomal CLint at 1 h, 1 µM / microsomal CLint at 1 μM: read-out: Microsome Stability Human liver microsomes Cl; for half-life at 1 h, 1 µM / half-life at 1 μM: read-out: Microsome Stability Human liver microsomes T½
Summary of the method: (§1)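 Compound at 1 μM incubated at 37° C with pooled human or mouse liver microsomes (0.5 mg/mL protein) plus NADPH regenerating system, sampled at 0–60 min; a 60-min no-NADPH incubation also included. Single replicate; LC/MS/MS disappearance from analyte/internal standard peak area ratios, without standard curve.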

[2] = Microsome stability assay, mouse liver microsomes; format: in vitro ADME; conditions: 1 μM compound, 0.5 mg/mL microsomal protein
Summary of the method: as §1

[3] = mouse, mouse liver microsomes, pooled, NADPH, 37° C., read-out: Microsome Stability Mouse liver microsomes Cl
[4] = mouse, mouse liver microsomes, pooled, NADPH, 37° C., read-out: Microsome Stability Mouse liver microsomes T½

HSD17B2, sequence (P37059 other isoform, or with tags, fused parts or gaps): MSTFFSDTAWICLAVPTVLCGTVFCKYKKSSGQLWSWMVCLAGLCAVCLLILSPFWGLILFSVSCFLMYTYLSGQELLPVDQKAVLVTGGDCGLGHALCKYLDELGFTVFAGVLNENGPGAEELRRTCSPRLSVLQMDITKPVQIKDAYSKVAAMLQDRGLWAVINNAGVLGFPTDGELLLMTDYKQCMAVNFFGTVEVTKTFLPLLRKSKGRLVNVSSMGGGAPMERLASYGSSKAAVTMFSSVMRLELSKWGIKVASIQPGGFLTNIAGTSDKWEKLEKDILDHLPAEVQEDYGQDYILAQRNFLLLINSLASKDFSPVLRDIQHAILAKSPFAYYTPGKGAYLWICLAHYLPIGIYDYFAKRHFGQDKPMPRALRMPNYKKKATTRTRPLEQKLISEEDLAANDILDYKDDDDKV
HSD17B4, sequence (P51659 other isoform, or with tags, fused parts or gaps): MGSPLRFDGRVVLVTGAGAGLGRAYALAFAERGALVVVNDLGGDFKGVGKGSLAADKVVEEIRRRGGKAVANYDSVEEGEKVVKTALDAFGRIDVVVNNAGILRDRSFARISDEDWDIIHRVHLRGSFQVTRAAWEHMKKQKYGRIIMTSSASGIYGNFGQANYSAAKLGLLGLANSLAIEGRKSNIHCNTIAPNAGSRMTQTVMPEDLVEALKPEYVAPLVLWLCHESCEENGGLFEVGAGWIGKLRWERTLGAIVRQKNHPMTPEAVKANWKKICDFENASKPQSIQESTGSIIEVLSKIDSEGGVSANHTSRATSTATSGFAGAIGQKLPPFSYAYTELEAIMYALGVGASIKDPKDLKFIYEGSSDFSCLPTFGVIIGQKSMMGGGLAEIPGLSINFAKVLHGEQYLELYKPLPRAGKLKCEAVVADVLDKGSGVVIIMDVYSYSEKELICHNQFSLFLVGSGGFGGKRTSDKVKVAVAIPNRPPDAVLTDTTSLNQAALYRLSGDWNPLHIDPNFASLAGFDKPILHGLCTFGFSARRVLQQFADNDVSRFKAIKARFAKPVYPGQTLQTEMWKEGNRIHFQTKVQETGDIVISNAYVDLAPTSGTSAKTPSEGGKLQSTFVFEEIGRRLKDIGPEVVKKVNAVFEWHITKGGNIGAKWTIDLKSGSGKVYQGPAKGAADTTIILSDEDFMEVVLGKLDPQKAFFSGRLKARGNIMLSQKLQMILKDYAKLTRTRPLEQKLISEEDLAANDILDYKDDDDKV
HSD17B13, sequence (Q7Z5P4 other isoform, or with tags, fused parts or gaps): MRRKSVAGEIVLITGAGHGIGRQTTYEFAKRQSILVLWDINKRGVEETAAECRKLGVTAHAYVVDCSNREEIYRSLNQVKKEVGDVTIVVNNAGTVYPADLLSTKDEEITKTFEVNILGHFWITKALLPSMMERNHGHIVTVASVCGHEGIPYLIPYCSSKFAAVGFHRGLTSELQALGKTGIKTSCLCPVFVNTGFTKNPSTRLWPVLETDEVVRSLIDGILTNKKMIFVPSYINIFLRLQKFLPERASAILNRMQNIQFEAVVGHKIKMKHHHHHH
HSD17B10, sequence (Q99714 other isoform, or with tags, fused parts or gaps): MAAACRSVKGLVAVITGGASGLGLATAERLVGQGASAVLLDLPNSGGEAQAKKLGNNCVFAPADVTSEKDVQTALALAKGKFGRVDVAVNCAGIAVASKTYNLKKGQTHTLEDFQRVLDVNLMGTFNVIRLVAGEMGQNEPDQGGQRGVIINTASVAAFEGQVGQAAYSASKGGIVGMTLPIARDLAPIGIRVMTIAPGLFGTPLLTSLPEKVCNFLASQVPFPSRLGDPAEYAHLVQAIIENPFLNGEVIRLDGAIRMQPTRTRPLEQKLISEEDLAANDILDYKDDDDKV
HSD17B1, sequence (P14061 other isoform, or with tags, fused parts or gaps): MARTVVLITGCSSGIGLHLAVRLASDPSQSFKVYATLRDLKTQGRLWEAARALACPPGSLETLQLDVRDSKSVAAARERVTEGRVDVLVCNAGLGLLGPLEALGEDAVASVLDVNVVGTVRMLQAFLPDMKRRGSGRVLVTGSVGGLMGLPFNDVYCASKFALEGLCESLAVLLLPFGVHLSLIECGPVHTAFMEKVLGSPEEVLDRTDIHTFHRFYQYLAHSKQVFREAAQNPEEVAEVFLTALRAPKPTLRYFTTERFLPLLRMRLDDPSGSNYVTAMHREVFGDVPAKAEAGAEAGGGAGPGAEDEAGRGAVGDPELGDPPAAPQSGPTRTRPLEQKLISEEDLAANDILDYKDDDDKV

Compound | pIC50 (HSD17B13) | pIC50 (HSD17B1) | pIC50 (HSD17B2) | pIC50 (HSD17B4) | pIC50 (HSD17B10) | Microsome Stability Human liver microsomes % Remaining @60 min [1] | microsomal CLint at 1 h, 1 µM [1] | half-life at 1 h, 1 µM [1] | Microsome Stability Mouse liver microsomes % Remaining @60 min [2] | microsomal CLint at 1 h, 1 µM [2, 3] | half-life at 1 h, 1 µM [2, 4] | microsomal CLint at 1 μM [1] | half-life at 1 μM [1] | microsomal CLint at 1 μM [2, 3] | half-life at 1 μM [2, 4]
O=C(NC1c2ccccc2Oc2cc(Cl)ccc21)c1ccc(C(F)(F)F)[nH]c1=O (stereo not shown) [Compound 15A, N-(3-chloro-9H-xanthen-9-yl)-2-oxo-6-(trifluoromethyl)-1,2-dihydropyridine-3-carboxamide] | 6.80 | 5.41 | 5.20 | < 4.00 | < 4.52 |  |  |  |  |  |  |  |  |  | 
Cc1ccc2c(c1)Oc1cccc(C)c1C2NC(=O)c1ccc(C(F)(F)F)[nH]c1=O (stereo not shown) [Compound 53, N-(1,6-dimethyl-9H-xanthen-9-yl)-2-oxo-6-(trifluoromethyl)-1,2-dihydropyridine-3-carboxamide] | 6.51 | 5.43 | 4.97 | 4.33 | < 4.52 |  |  |  |  |  |  |  |  |  | 
Cc1ccc2c(c1)Oc1ccccc1C2NC(=O)c1ccc(C(F)(F)F)[nH]c1=O (stereo not shown) [Compound 55, N-(3-methyl-9H-xanthen-9-yl)-2-oxo-6-(trifluoromethyl)-1,2-dihydropyridine-3-carboxamide] | 6.74 | 5.33 | 5.04 | < 4.00 | < 4.52 |  |  |  |  |  |  |  |  |  | 
O=C(NC(c1ccccc1)c1ccc2c(c1)CCCC2)c1ccc(C(F)(F)F)[nH]c1=O (stereo not shown) [Compound 80, N-(phenyl(5,6,7,8-tetrahydronaphthalen-2-yl)methyl)-2-oxo-6-(trifluoromethyl)-1,2-dihydropyridine-3-carboxamide] | 6.44 | 5.44 | 5.05 | 4.31 | < 4.52 |  |  |  |  |  |  |  |  |  | 
O=C(NC(c1ccccc1)c1ccc(-c2cccnc2)cc1)c1ccc(C(F)(F)F)[nH]c1=O (stereo not shown) [Compound 93, N-(phenyl(4-(pyridin-3-yl)phenyl)methyl)-2-oxo-6-(trifluoromethyl)-1,2-dihydropyridine-3-carboxamide] | 6.22 | 4.81 | 4.97 | 4.18 | < 4.52 |  |  |  |  |  |  |  |  |  | 
O=C(NC(c1ccccc1)c1ccc2c(c1)COC2)c1ccc(C(F)(F)F)[nH]c1=O (stereo not shown) [Compound 94, N-((1,3-dihydroisobenzofuran-5-yl)(phenyl)methyl)-2-oxo-6-(trifluoromethyl)-1,2-dihydropyridine-3-carboxamide] |  | 4.95 | 4.73 | 4.01 | < 4.52 |  |  |  |  |  |  |  |  |  | 
Cc1ccc(C(NC(=O)c2cc(C)c(C(F)(F)F)[nH]c2=O)c2ccc(C)cc2)cc1 [Compound 115, N-(di-p-tolylmethyl)-5-methyl-2-oxo-6-(trifluoromethyl)-1,2-dihydropyridine-3-carboxamide] | 6.35 | 4.95 | 4.96 | < 4.00 | < 4.52 |  |  |  |  |  |  |  |  |  | 
CCc1ccc2c(c1)Oc1ccccc1C2NC(=O)c1ccc(C(F)(F)F)[nH]c1=O (stereo not shown) [Compound 140, N-(3-ethyl-9H-xanthen-9-yl)-2-oxo-6-(trifluoromethyl)-1,2-dihydropyridine-3-carboxamide] | 6.70 | 5.45 | 4.97 | 4.27 | < 4.52 |  |  |  |  |  |  |  |  |  | 
O=C(NC1c2ccccc2Oc2cc(CC(F)(F)F)ccc21)c1ccc(C(F)(F)F)[nH]c1=O (stereo not shown) [Compound 141, 2-oxo-N-(3-(2,2,2-trifluoroethyl)-9H-xanthen-9-yl)-6-(trifluoromethyl)-1,2-dihydropyridine-3-carboxamide] | 6.44 | 5.44 | 5.14 | 4.23 | < 4.52 |  |  |  |  |  |  |  |  |  | 
Cc1ccc2c(c1)Oc1ccccc1C2NC(=O)c1c(C)cc(C(F)(F)F)[nH]c1=O (stereo not shown) [Compound 198, 4-methyl-N-(3-methyl-9H-xanthen-9-yl)-2-oxo-6-(trifluoromethyl)-1,2-dihydropyridine-3-carboxamide] | 6.40 | < 4.52 | < 4.00 | < 4.00 | < 4.52 |  |  |  |  |  |  |  |  |  | 
CCC1Cc2cc(C)ccc2C(NC(=O)c2ccc(C(F)(F)F)[nH]c2=O)C1 (stereo not shown) [Compound 388, N-(3-ethyl-6-methyl-1,2,3,4-tetrahydronaphthalen-1-yl)-2-oxo-6-(trifluoromethyl)-1,2-dihydropyridine-3-carboxamide] | 7.30 | < 4.52 | 4.59 |  |  | 10% | 150 µL/min/mg | 9.26 min | 24.60% | 47.4 µL/min/mg | 29.2 min |  |  |  | 
Cc1ccc2c(c1)OCCC2NC(=O)c1ccc(C(F)(F)F)[nH]c1=O (stereo not shown) [Compound 441, N-(7-methylchroman-4-yl)-2-oxo-6-(trifluoromethyl)-1,2-dihydropyridine-3-carboxamide] | 5.66 | < 4.52 | 4.95 |  |  | 45% |  |  | 74% | 10.2 µL/min/mg | 135 min | 26.4 µL/min/mg | 52.5 min |  | 
Cc1cccc(C(NC(=O)c2ccc(C(F)(F)F)[nH]c2=O)c2ccccc2)c1 (stereo not shown) [Compound 490, 2-oxo-N-(phenyl(m-tolyl)methyl)-6-(trifluoromethyl)-1,2-dihydropyridine-3-carboxamide] | 6.23 | < 4.52 | 4.79 |  |  | 1% | 203 µL/min/mg | 6.83 min | 1.60% | 140 µL/min/mg | 9.87 min |  |  |  | 
Nc1cccc2c1CCCC2NC(=O)c1ccc(C(F)(F)F)[nH]c1=O (stereo not shown) [Compound 533, N-(5-amino-1,2,3,4-tetrahydronaphthalen-1-yl)-2-oxo-6-(trifluoromethyl)-1,2-dihydropyridine-3-carboxamide] | 6.17 | < 4.52 | 4.14 |  |  | 88.90% |  |  | 90.20% |  |  | < 9.6 µL/min/mg | > 145 min | < 9.6 µL/min/mg | > 145 min
